The subject of series [1] is bladder, breast, head and neck, ovarian and prostate tumors from human patients. The experiment in a line: Paclitaxel in histocultures of tumors obtained from human patients. In kind it is cell-based. Particulars: 96 tumors; bladder 2 hours, remaining tumors 96 hours. The protocol:
The third study examined the relationship between the levels of aFGF and bFGF in human tumors and tumor sensitivity to anticancer agents. This study was performed using 96 tumors obtained from human patients, including include bladder, breast, head and neck, ovarian and prostate tumors. Paclitaxel was used as the model drug. […] The drug-induced antiproliferation was measured by inhibition of DNA precursor incorporation, and apoptosis was measured by morphological changes and by labeling of nicked DNA. aFGF, bFGF and other proteins known to contribute to drug resistance (i.e. the mdr1 p-glycoprotein, p53 and bcl-2) were detected by immunohistochemical staining.

A further series has as its system rat MAT-LyLu tumor cells. The experiment in a line: Intracellular drug accumulation with or without CM or r-bFGF. Particulars: unchanged with or without CM or r-bFGF; 10 nM paclitaxel, 100 nM doxorubicin, 500 nM 5-fluorouracil.
Series [2] relates to Human prostate PC3 tumor cells. Described as above. The note with it: unchanged with or without CM or r-bFGF; 1 nM paclitaxel, 50 nM doxorubicin, 500 nM 5-fluorouracil; 4 hours.
Another series has as its system subcutaneous PC3 tumors. The note with it: suramin 10 mg/kg, doxorubicin 5 mg/kg, twice weekly for 3 weeks. On the procedure: Briefly, PC3 cells (5×10^6 cells) were injected subcutaneously.

Turning to `CC(=O)O[C@H]1C(=O)[C@@]2(C)[C@H]([C@H](OC(=O)c3ccccc3)[C@]3(O)C[C@H](OC(=O)[C@H](O)[C@@H](NC(=O)c4ccccc4)c4ccccc4)C(C)=C1C3(C)C)[C@]1(OC(C)=O)CO[C@@H]1C[C@@H]2O` [Paclitaxel], in series [1], the “tumors in which antiproliferation was produced” value is given as 84% and the “tumors in which apoptosis was induced” value is recorded as 96%.

On to `COc1cccc2c1C(=O)c1c(O)c3c(c(O)c1C2=O)C[C@@](O)(C(=O)CO)C[C@@H]3O[C@H]1C[C@H](N)[C@H](O)[C@H](C)O1` [Doxorubicin], for which the results for the plateau intracellular concentration (in the series with rat MAT-LyLu tumor cells; in series [2]) were 80 pmol/10^6 cells and 40 pmol/10^6 cells, respectively. In addition, the “effect on tumor growth” value in the series with subcutaneous PC3 tumors is listed as “reduced the tumor growth but did not cause tumor regression”.
